The values that follow come from ChEMBL document CHEMBL5055650, “4-Acyl Pyrrole Capped HDAC Inhibitors: A New Scaffold for Hybrid Inhibitors of BET Proteins and Histone Deacetylases as Antileukemia Drug Leads” (J Med Chem, 2021).

pIC50: −log10 of the molar value. Active and inactive are the calls of the source. No cut-off for these calls is given here.

Series [1] has as its target T1, Protein deacetylase HDAC6 (Homo sapiens, UniProt Q9UBN7).
T1 sequence (Q9UBN7 whole entry): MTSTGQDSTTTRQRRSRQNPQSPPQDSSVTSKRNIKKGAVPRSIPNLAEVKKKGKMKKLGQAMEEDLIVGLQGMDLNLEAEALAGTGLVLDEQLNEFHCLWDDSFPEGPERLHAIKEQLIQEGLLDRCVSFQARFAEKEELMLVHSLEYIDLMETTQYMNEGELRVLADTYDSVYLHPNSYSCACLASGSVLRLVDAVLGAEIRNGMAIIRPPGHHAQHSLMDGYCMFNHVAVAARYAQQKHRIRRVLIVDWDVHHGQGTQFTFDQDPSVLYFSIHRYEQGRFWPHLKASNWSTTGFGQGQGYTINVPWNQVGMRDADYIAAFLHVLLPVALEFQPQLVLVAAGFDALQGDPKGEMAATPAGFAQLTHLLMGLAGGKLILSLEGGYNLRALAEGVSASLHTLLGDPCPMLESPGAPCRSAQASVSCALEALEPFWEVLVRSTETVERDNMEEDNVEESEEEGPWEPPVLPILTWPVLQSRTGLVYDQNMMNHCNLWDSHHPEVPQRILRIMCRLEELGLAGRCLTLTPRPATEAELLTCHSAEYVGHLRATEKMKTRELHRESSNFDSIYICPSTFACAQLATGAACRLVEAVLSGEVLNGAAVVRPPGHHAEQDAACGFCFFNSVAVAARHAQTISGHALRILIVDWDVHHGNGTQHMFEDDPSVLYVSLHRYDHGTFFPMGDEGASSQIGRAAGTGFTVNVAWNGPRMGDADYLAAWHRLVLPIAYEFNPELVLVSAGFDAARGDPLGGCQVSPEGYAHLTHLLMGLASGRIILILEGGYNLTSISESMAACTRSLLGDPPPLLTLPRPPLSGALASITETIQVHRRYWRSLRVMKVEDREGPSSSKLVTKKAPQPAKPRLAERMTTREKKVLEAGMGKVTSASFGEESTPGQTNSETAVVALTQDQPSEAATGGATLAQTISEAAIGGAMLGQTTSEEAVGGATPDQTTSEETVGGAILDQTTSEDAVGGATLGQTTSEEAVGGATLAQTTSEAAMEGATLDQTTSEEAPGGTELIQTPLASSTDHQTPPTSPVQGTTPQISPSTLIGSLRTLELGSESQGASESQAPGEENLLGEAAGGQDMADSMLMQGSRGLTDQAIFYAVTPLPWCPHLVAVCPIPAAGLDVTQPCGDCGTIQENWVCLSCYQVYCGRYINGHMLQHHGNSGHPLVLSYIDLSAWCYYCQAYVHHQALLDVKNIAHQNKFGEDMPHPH
Description: Inhibition of human recombinant HDAC6 assessed as fluorescence using fluorogenic substrate ZMAL incubated for 90 min by microplate reader.

Series [2] deals with HPBALL. In words: Induction of apoptosis in human HPBALL cells assessed as increase in apoptotic cells at 5 uM after 24 hrs using annexin V/PI followed by flow cytometry. It counts as functional, cell-based. (Flow cytometry measures light scatter and fluorescence of single cells or particles in a stream.)
For series [3], the target named is T2, Histone deacetylase (Homo sapiens) (UniProt Q13547+O15379+Q9UBN7+Q92769+Q9UQL6+Q8WUI4+Q9BY41+Q96DB2+P56524+Q9UKV0+Q969S8). In words: Inhibition of HDAC in human K562 cells assessed as increase in acetylated histone H3 measured after 48 hrs by Western blot analysis. The format is cell-based.
In series [4] the test system is HPBALL. In words: Induction of apoptosis in human HPBALL cells assessed as increase in apoptotic cells at 5 uM after 48 hrs by using annexin V/PI followed by flow cytometry. It counts as functional, cell-based.
Another series concerns the target Histone deacetylase 3 (Homo sapiens, UniProt O15379). In words: Inhibition of human HDAC3 assessed as target activity using fluorogenic substrate ZMAL for 90 min by microplate reader at 355nm.
Series [5] relates to HPBALL. Description: Induction of apoptosis in human HPBALL cells assessed as increase in caspase3/7 activity at 5 uM after 48 hrs by luminescent based Glo assay. It counts as functional, cell-based.
For series [6], the system named is HPBALL. Description: Induction of apoptosis in human HPBALL cells assessed as increase in apoptotic cells at 5 uM after 72 hrs using annexin V/PI followed by flow cytometry. The format is functional, cell-based.
In series [7] the target is T2, Histone deacetylase (Homo sapiens). Description: Inhibition of HDAC in human K562 cells assessed as decrease in MYC expression measured after 24 to 72 hrs by Western blot analysis. It counts as cell-based. The settings on record: time 24-72 hrs. (In general: Immunoblotting shows a protein as a band on a membrane.)
In the next series the test system is K562. Description: Anticancer activity against human K562 cells assessed as cell growth inhibition by CellTiter-Glo luminescent assay. It counts as functional, cell-based. For orientation: In ATP-based viability assays light output follows the ATP content of the culture.
The species entered for series [8] is Danio rerio. In words: Toxicity in zebrafish embryos assessed as malformation of head at 0.5 uM after 72 hrs by visual analysis (reference value: 0%). The format is organism-based. The settings on record: in vivo.
For series [9], the species on record is Danio rerio. In words: Toxicity in zebrafish embryos assessed as tail necrosis at 0.5 uM after 72 hrs by visual analysis (reference value: 0%). It counts as organism-based. The settings on record: in vivo.
For series [10], the species on record is Danio rerio. In words: Toxicity in zebrafish embryos assessed as teratogenesis at 0.005 uM after 72 hrs by visual analysis (reference value: 0%). It counts as organism-based, Embryo. The note with it: in vivo.
Series [11] is filed under the species Danio rerio. Description: Toxicity in zebrafish embryos assessed as malformation of head at 5 uM after 72 hrs by visual analysis (reference value: 0%). The format is organism-based. The note with it: in vivo.
The test system of series [12] is Danio rerio. Description: Toxicity in zebrafish embryos assessed as pericardial edema at 0.005 uM after 72 hrs by visual analysis (reference value: 10%). It counts as organism-based, Embryo. The note with it: in vivo.
For series [13], the species on record is Danio rerio. Description: Toxicity in zebrafish embryos assessed as small eyes at 5 uM after 72 hrs by visual analysis (reference value: 10%). It counts as organism-based, Embryo. The settings on record: in vivo.
The species named for series [14] is Danio rerio. In words: Toxicity in zebrafish embryos assessed as malformation of head at 50 uM after 72 hrs by visual analysis (reference value: 0%). The format is organism-based. The note with it: in vivo.
Series [15] deals with Danio rerio. In words: Toxicity in zebrafish embryos assessed as pericardial edema at 5 uM after 72 hrs by visual analysis (reference value: 10%). The settings on record: in vivo. It counts as organism-based, Embryo.
Series [16] is filed under the species Danio rerio. Description: Toxicity in zebrafish embryos assessed as head necrosis at 0.05 uM after 72 hrs by visual analysis (reference value: 0%). It counts as organism-based. The note with it: in vivo.
For series [17], the species on record is Danio rerio. In words: Toxicity in zebrafish embryos assessed as teratogenesis at 0.05 uM after 72 hrs by visual analysis (reference value: 0%). The format is organism-based, Embryo. The settings on record: in vivo.
Series [18] is filed under the species Danio rerio. Description: Toxicity in zebrafish embryos assessed as small eyes at 0.5 uM after 72 hrs by visual analysis (reference value: 10%). It counts as organism-based, Embryo. The settings on record: in vivo.
The species named for series [19] is Danio rerio. In words: Toxicity in zebrafish embryos assessed as brain hemorrhage at 0.005 uM after 72 hrs by visual analysis (reference value: 0%). It counts as organism-based. The note with it: in vivo.
Series [20] is filed under the species Danio rerio. In words: Toxicity in zebrafish embryos assessed as head necrosis at 5 uM after 72 hrs by visual analysis (reference value: 0%). The settings on record: in vivo. It counts as organism-based.
The species entered for series [21] is Danio rerio. Description: Toxicity in zebrafish embryos assessed as tail necrosis at 0.005 uM after 72 hrs by visual analysis (reference value: 0%). It counts as organism-based. The note with it: in vivo.
The species named for series [22] is Danio rerio. In words: Toxicity in zebrafish embryos assessed as brain hemorrhage at 0.05 uM after 72 hrs by visual analysis (reference value: 0%). The note with it: in vivo. It counts as organism-based.
The species entered for series [23] is Danio rerio. In words: Toxicity in zebrafish embryos assessed as malformation of tail at 0.005 uM after 72 hrs by visual analysis (reference value: 5%). It counts as organism-based. The note with it: in vivo.
Series [24] is filed under the species Danio rerio. Description: Toxicity in zebrafish embryos assessed as teratogenesis at 0.5 uM after 72 hrs by visual analysis (reference value: 0%). It counts as organism-based, Embryo. The settings on record: in vivo.
Series [25] is filed under the species Danio rerio. Description: Toxicity in zebrafish embryos assessed as cardiac teratogenesis/necrosis at 0.05 uM after 72 hrs by visual analysis (reference value: 0%). The format is organism-based, Embryo. The settings on record: in vivo.

Sequence of Histone deacetylase 3 (O15379 whole entry): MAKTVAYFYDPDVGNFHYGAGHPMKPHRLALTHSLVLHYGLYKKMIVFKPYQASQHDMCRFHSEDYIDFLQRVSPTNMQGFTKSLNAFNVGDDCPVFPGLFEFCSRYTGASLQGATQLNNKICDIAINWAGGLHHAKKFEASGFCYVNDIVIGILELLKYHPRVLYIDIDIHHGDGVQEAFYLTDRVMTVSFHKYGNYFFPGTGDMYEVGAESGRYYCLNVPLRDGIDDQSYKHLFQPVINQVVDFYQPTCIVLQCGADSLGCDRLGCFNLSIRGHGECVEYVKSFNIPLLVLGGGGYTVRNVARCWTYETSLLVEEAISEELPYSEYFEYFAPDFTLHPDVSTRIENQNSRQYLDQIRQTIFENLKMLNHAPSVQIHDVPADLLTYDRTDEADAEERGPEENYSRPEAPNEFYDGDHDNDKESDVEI

For orientation: pIC50 means −log10 of the IC50, conventionally taken in molar units. Turning to `COc1ccc(S(=O)(=O)n2ccc(/C=C/C(=O)NO)c2)cc1NC(=O)c1[nH]c(C)c2c1CCCCC2=O`, the pIC50 in series [1] is 7.34; on Histone deacetylase 3, 7.19; in the series on K562, 5.54. Moreover, the result (in the series on HPBALL [2]; in series [3]; in the series on HPBALL [4]; in the series with HPBALL [5]; in the series with HPBALL [6]) was Active. For the same molecule, in series [7], the inhibition entry is “Active”.

`Cc1[nH]c(C(=O)Nc2cc(S(=O)(=O)N3CCOCC3)ccc2OCCCCCCCC(=O)NO)c2c1C(=O)CCCC2`: the Activity in the series filed under Danio rerio [8] is recorded as 15%; in the series filed under Danio rerio [9], 0%; in the series listed under Danio rerio [10], 15%; in the series listed under Danio rerio [11], 0%; in the series on Danio rerio [12] it was 15%; in the series filed under Danio rerio [13], 5%. Besides, the Activity came to 15% in the series filed under Danio rerio [14]; 10% in the series on Danio rerio [15]; 0% in the series filed under Danio rerio [16]; 10% in the series listed under Danio rerio [17]; 15% in the series filed under Danio rerio [18]; 0% in the series filed under Danio rerio [19]. Moreover, the Activity in the series listed under Danio rerio [20] is listed as 0%; in the series filed under Danio rerio [21] it was 15%; in the series listed under Danio rerio [22], 0%; in the series filed under Danio rerio [23] it was 5%; in the series listed under Danio rerio [24], 15%; in the series listed under Danio rerio [25], 0%. For the same molecule, the figures for the negative-log IC50 (pIC50) (in [1]; at Histone deacetylase 3; with K562) were 7.17, 6.53 and 5.22, respectively. Moreover, the outcome (in [3]; in the series with HPBALL [5]) was Active. For the same molecule, the inhibition entry in [7] was “Active”.

With `CCc1c(C(=O)Nc2cc(/C=C/C(=O)NO)ccc2OC)[nH]c(C)c1C(C)=O`, the pIC50 was 7.38 in series [1], 6.92 on Histone deacetylase 3 and 5.47 in the series with K562. Also, the outcome (in the series on HPBALL [2]; in series [3]; with HPBALL [4]; in series [7]) was Active. Moreover, the inhibition result with HPBALL [5] is “Active”. The outcome with HPBALL [6] was inactive.
